As a reminder, the Kd is the equilibrium constant for the complex coming apart. For orientation: IC50 means the point on the concentration scale where inhibition reaches its midpoint. For orientation: half-life means the time needed for the level to fall by half in the phase considered. Usually inhibition stands for the change of the read-out against control, counted positive when it falls.

The values that follow come from ChEMBL document CHEMBL5223112, “Design, synthesis, and structure-activity relationship of novel RIPK2 inhibitors” (Bioorg Med Chem Lett, 2022).

The target of series [1] is Receptor-interacting serine/threonine-protein kinase 2 (Homo sapiens, UniProt O43353). Briefly: Binding affinity to RIPK2 (unknown origin) assessed as dissociation constant by kinomescan assay.
Another series has as its system THP-1. Kind of series: Antiinflammatory activity in MDP-stimulated IL-8 production in human THP-1 cells pretreated for 2 hrs followed by MDP stimulation for 6 hrs. Format: functional, cell-based.
A short description of series [2]: Metabolic stability in human liver microsomes assessed as half life. Format: ADME. For orientation: Liver microsomes are a subcellular fraction often used to study metabolism.
Series [3] in a line: Metabolic stability in rat liver microsomes assessed as half life. Format: ADME.
The nature of series [4]: Metabolic stability in mouse liver microsomes assessed as half life. The class given is ADME.
A short description of series [5]: Metabolic stability in dog liver microsomes assessed as half life. Format: ADME, Canis lupus familiaris.
A short description of series [6]: Metabolic stability in monkey liver microsomes assessed as half life. The class given is ADME, Macaca mulatta. The following applies: rhesus monkey.
A short description of series [7]: Metabolic stability in human liver microsomes assessed as intrinsic clearance. Format: ADME. The following applies: read-out: CLH.
Series [8] in a line: Metabolic stability in rat liver microsomes assessed as intrinsic clearance. The class given is ADME. The following applies: read-out: CLH.
Series [9] can be described thus: Metabolic stability in mouse liver microsomes assessed as intrinsic clearance. The following applies: read-out: CLH. The class given is ADME.
The nature of series [10]: Metabolic stability in dog liver microsomes assessed as intrinsic clearance. Particulars: read-out: CLH. The class given is ADME, Canis lupus familiaris.
A short description of series [11]: Metabolic stability in monkey liver microsomes assessed as intrinsic clearance. Particulars: rhesus monkey, read-out: CLH. Format: ADME, Macaca mulatta.
Another series addresses T1, CYP1A2 (Homo sapiens, UniProt P05177).
T1 sequence (P05177 whole entry): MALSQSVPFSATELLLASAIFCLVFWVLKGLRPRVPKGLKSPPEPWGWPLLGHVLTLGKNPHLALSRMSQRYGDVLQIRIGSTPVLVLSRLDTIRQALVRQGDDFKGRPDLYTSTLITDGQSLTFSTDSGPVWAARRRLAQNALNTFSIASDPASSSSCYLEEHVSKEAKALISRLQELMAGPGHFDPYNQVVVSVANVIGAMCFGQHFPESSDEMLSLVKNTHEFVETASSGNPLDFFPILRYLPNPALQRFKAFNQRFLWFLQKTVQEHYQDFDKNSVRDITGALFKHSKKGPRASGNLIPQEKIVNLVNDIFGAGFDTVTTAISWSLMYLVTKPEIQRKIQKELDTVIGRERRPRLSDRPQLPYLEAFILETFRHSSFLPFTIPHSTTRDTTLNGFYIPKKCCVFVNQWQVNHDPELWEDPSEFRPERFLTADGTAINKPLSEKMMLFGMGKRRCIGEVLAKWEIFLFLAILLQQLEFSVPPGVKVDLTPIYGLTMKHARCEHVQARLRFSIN
Briefly: Inhibition of CYP1A2 (unknown origin) at 10 uM relative to control. Format: ADME.

Another series concerns the target CYP2C9 (Homo sapiens, UniProt P11712). Briefly: Inhibition of CYP2C9 (unknown origin) at 10 uM relative to control. Format: ADME.
Another series addresses CYP2C19 (Homo sapiens, UniProt P33261). Kind of series: Inhibition of CYP2C19 (unknown origin) at 10 uM relative to control. The class given is ADME.
The target in the next series is CYP2D6 (Homo sapiens, UniProt P10635). Briefly: Inhibition of CYP2D6 (unknown origin) at 10 uM relative to control. Format: ADME.
For series [12], the target named is T2, CYP3A4 (Homo sapiens, UniProt P08684). Briefly: Inhibition of CYP3A4 (unknown origin) at 10 uM using midazolam as substrate relative to control. The class given is ADME. Particulars: probe midazolam.
Series [13] concerns the target T2, CYP3A4. Kind of series: Inhibition of CYP3A4 (unknown origin) at 10 uM using testosterone as substrate relative to control. Format: ADME. Particulars: probe testosterone.
Series [14] concerns the target Voltage-gated inwardly rectifying potassium channel KCNH2 (Homo sapiens, UniProt Q12809). Briefly: Inhibition of hERG. Format: toxicity. In general terms: hERG is a cardiac potassium channel; its block is linked to QT prolongation.
The target in series [15] is T3, Receptor-interacting serine/threonine-protein kinase 1 (Homo sapiens, UniProt Q13546).
T3 sequence (Q13546 whole entry): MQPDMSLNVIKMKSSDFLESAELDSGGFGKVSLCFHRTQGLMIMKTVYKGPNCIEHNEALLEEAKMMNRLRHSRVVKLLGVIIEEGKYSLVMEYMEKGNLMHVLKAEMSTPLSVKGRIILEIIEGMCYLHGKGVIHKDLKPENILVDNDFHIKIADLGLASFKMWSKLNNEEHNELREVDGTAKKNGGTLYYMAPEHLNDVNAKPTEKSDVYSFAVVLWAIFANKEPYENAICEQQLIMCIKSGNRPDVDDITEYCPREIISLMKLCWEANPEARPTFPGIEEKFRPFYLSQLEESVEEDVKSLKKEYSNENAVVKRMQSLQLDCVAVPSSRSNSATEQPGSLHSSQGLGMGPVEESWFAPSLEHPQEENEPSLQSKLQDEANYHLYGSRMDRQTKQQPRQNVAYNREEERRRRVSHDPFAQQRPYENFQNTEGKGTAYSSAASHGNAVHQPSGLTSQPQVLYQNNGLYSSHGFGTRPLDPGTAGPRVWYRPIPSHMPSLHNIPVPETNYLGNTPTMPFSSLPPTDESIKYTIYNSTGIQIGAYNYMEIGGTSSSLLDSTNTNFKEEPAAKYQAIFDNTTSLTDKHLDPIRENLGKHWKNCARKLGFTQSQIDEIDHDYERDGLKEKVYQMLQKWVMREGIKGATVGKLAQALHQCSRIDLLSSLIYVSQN
Kind of series: Binding affinity to RIPK1 (unknown origin) assessed as dissociation constant by kinomescan assay.

Series [16] deals with Receptor-interacting serine/threonine-protein kinase 3 (Homo sapiens, UniProt Q9Y572). Briefly: Binding affinity to RIPK3 (unknown origin) assessed as dissociation constant by kinomescan assay.

Bounds are passed on as bounds.

Chain of CYP2C19 (P33261 whole entry): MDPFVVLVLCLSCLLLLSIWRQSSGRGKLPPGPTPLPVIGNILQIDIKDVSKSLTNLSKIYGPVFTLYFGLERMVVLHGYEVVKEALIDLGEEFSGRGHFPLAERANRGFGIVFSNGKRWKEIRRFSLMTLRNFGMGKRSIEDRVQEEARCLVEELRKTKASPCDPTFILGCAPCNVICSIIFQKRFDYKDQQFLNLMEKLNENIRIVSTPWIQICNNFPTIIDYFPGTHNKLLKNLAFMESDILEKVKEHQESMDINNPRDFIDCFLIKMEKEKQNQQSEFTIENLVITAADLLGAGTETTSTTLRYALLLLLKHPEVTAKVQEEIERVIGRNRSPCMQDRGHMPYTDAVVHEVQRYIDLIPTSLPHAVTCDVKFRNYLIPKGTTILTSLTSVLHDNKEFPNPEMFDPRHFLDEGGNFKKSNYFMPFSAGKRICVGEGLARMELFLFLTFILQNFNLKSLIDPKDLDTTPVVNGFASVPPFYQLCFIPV
Chain of CYP2D6 (P10635 whole entry): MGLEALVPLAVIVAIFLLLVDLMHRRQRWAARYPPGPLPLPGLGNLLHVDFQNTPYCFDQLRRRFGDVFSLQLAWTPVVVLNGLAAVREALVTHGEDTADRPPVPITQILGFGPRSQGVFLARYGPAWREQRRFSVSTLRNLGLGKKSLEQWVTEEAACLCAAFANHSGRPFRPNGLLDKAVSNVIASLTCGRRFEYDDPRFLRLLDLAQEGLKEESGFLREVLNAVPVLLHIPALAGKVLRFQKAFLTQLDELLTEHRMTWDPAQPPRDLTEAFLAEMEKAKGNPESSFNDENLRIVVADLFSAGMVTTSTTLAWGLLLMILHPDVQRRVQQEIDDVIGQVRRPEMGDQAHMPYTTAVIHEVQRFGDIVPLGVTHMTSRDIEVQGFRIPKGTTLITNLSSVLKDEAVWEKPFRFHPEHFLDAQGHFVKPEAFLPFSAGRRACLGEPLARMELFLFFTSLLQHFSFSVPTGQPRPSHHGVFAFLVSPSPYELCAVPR
Chain of Receptor-interacting serine/threonine-protein kinase 2 (O43353 whole entry): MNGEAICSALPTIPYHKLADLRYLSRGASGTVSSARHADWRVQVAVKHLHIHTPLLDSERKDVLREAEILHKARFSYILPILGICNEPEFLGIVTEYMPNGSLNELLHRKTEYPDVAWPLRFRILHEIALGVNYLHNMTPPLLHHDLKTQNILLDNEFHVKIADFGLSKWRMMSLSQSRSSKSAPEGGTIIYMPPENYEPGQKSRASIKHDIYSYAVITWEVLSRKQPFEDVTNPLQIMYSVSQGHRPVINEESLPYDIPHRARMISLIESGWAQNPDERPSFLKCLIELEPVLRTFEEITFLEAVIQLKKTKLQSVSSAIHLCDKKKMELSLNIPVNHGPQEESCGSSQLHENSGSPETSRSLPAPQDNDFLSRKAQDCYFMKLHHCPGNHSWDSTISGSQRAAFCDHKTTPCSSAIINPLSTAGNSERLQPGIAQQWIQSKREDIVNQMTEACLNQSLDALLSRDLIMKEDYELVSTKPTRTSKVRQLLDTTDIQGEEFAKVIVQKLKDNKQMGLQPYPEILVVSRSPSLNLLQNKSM
Chain of CYP2C9 (P11712 whole entry): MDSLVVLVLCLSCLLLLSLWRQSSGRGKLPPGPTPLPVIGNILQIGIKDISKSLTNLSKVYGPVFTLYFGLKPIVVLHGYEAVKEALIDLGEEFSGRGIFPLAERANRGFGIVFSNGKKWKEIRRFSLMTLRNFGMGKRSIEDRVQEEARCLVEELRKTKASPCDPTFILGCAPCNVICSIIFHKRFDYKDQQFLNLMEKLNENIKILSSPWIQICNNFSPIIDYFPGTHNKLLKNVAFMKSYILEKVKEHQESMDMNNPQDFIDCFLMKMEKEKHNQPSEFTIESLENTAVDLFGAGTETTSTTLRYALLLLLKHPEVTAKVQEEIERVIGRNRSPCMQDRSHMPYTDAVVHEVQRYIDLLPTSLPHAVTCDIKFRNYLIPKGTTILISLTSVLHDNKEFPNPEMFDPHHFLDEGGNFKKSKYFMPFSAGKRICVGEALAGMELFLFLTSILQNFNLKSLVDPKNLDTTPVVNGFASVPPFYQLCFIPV
T2 sequence (P08684 whole entry): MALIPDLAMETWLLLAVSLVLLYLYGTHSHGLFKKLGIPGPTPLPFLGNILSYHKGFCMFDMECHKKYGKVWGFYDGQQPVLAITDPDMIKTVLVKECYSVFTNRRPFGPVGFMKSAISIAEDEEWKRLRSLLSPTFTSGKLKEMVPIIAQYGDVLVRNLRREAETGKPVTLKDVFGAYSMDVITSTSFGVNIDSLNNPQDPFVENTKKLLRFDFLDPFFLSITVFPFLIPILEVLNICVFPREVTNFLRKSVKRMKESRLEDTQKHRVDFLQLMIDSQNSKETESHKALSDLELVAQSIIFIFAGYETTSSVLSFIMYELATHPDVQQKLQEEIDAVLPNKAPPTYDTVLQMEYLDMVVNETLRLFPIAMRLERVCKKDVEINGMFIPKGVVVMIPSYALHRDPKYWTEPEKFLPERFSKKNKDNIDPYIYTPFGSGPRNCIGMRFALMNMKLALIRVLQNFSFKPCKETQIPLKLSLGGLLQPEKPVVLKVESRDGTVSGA
Chain of Receptor-interacting serine/threonine-protein kinase 3 (Q9Y572 whole entry): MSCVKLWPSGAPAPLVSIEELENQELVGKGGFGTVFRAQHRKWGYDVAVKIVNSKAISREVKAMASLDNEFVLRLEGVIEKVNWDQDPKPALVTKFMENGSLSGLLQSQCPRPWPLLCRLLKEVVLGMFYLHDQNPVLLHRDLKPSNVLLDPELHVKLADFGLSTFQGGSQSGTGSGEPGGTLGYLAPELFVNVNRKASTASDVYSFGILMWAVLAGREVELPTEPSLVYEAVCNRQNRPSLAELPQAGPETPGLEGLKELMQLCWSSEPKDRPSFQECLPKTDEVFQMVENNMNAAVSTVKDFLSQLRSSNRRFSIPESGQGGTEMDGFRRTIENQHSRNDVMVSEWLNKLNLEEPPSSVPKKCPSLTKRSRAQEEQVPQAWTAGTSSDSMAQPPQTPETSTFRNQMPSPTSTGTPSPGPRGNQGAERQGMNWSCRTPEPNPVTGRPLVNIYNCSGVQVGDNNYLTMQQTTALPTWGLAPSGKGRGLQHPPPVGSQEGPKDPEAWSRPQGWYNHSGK
Chain of Voltage-gated inwardly rectifying potassium channel KCNH2 (Q12809 whole entry): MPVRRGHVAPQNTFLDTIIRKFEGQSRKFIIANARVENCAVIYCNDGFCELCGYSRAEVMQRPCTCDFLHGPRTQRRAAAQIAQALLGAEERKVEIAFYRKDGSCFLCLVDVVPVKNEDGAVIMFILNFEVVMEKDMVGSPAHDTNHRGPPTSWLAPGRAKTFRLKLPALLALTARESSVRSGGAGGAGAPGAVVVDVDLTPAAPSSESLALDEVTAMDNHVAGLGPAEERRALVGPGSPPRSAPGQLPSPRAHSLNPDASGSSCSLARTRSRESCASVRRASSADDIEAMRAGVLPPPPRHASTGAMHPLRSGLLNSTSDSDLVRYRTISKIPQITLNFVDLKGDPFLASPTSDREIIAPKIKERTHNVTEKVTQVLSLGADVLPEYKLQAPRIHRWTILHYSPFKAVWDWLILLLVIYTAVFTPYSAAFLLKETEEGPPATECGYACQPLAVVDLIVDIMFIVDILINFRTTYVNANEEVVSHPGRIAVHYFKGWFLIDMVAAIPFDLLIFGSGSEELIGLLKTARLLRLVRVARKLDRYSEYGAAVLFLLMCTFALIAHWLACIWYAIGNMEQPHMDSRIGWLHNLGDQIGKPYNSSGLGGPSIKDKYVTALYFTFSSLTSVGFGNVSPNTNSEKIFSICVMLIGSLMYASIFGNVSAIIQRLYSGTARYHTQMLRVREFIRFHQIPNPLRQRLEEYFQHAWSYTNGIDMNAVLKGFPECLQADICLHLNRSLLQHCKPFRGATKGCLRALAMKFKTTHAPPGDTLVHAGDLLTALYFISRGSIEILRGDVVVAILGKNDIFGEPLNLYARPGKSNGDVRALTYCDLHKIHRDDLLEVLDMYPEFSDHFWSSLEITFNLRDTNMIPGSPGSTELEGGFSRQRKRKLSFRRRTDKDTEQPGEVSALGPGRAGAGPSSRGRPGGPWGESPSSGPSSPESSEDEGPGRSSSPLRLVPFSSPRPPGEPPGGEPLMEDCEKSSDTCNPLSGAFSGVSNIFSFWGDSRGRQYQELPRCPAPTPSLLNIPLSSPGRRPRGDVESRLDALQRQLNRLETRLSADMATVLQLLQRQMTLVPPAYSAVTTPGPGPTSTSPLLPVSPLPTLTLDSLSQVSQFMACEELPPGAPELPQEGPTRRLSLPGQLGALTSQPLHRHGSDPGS

As for `O=S1(=O)C=C(C2CC2)c2cc3ncnc(Nc4cc(O)ccc4F)c3cc21`, the equilibrium dissociation constant (Kd) in series [1] stood at 14 nM.

Regarding `O=S1(=O)C=C(C2CC2)c2cc3ncnc(Nc4ccc5nc[nH]c5c4)c3cc21`, in [1], the Kd amounted to 325 nM.

`CC1=CS(=O)(=O)c2cc3c(Nc4ccc5scnc5c4)ncnc3cc21`: in series [1], the dissociation constant (Kd) stood at 14 nM.

Consider `CCOC1=C(C)S(=O)(=O)c2cc3c(Nc4ccc5scnc5c4)ncnc3cc21`, for which, in series [1], the Kd was found to be 24 nM.

For `CC1=Cc2cc3nc(C)nc(Nc4ccc5scnc5c4)c3cc2S1(=O)=O`, the Kd in series [1] is 685 nM.

In the case of `CC(C)(C)S(=O)(=O)c1cc2c(Nc3ccc4scnc4c3)ncnc2cc1OCCOP(=O)(O)O`, the Kd in series [1] came to 0.78 nM. The half-maximal inhibitory concentration (IC50) with THP-1 is 1.34 nM.

For the compound `COC1=CS(=O)(=O)c2cc3c(Nc4ccc5scnc5c4)ncnc3cc21`, the Kd in series [1] came to 27 nM.

For `O=S1(=O)C=C(c2ccc(F)cc2)c2cc3ncnc(Nc4ccc5scnc5c4)c3cc21`, the Kd in series [1] was 545 nM.

Take `O=S1(=O)C=C(C2CC2)c2cc3ncnc(Nc4n[nH]c5ccc(F)cc45)c3cc21`: the Kd in series [1] stood at 10 nM.

In the case of `O=S1(=O)C=C(C2CC2)c2cc3ncnc(Nc4ccc5nn[nH]c5c4)c3cc21`, the Kd in series [1] is 10 nM.

Turning to `CC1=Cc2cc3ncnc(Nc4ccc5scnc5c4)c3cc2S1(=O)=O`, in series [1], the Kd came to 55 nM.

Take `Cc1[nH]nc(Nc2ncnc3cc4c(cc23)S(=O)(=O)C=C4C2CC2)c1C`: the dissociation constant (Kd) in series [1] stood at 10 nM.

Regarding `CC1=C(C)S(=O)(=O)c2cc3c(Nc4ccc5scnc5c4)ncnc3cc21`, the Kd in [1] stood at 8.2 nM. For the same compound, the half-life was determined as 53 min in series [2]; 59 min in [3]; 23.7 min in series [4]; 4.61 min in [5]; 20.9 min in series [6]. Besides, the CLint scaled in [7] came out at 32.8 mL/min/kg; in [8], 42.1 mL/min/kg; in series [9] it was 230 mL/min/kg; in [10], 749 mL/min/kg; in series [11], 97 mL/min/kg. For the same compound, the inhibition at 10 µM against CYP1A2 is 14.9%; against CYP2C9, -1.42%; at CYP2C19, 11.5%; against CYP2D6, -15.7%; against CYP3A4 [12], -3.32%; against CYP3A4 [13], 6.88%.

On to `O=S1(=O)C=C(c2ccccc2)c2cc3ncnc(Nc4ccc5scnc5c4)c3cc21`, for which the Kd in [1] stood at 109 nM.

In the case of `O=S1(=O)C=C(C2CC2)c2cc3ncnc(Nc4ccc5scnc5c4)c3cc21`, the Kd in series [1] is 3.3 nM. For the same compound, the half-life was 64.3 min in [2]; 61 min in series [3]; 15.9 min in series [4]; 10.8 min in series [5]; 28.5 min in series [6]. In addition, the CLint scaled worked out at 27 mL/min/kg in series [7]; 40.8 mL/min/kg in series [8]; 344 mL/min/kg in series [9]; 320 mL/min/kg in [10]; 71 mL/min/kg in series [11]. The inhibition at 10 µM against CYP1A2 was 19.9%; at CYP2C9, 11.9%; against CYP2C19, 40.6%; at CYP2D6, -13.6%; against CYP3A4 [12], 14.9%; on CYP3A4 [13], 14.3%.

With `O=S1(=O)C=C(C2CC2)c2cc3ncnc(Nc4ccc5cc[nH]c5c4)c3cc21`, the Kd in [1] is 1200 nM.

`CCOC1=CS(=O)(=O)c2cc3c(Nc4ccc5scnc5c4)ncnc3cc21`: the figures for the equilibrium dissociation constant (Kd) in [1], in series [15] and in [16] were 5.9 nM, greater than 30 µM and 43 nM, respectively. Further, the half-life came to 189 min in series [2]; 142 min in series [3]; 62.7 min in series [4]; 25.9 min in series [5]; 38 min in series [6]. The CLint scaled in series [7] amounted to 9.19 mL/min/kg; in series [8], 17.5 mL/min/kg; in [9] it was 87 mL/min/kg; in series [10], 133 mL/min/kg; in [11], 53.3 mL/min/kg. In addition, the inhibition at 10 µM on CYP1A2 is 18.1%; on CYP2C9, 10.7%; against CYP2C19, 16.6%; against CYP2D6, -23.2%; against CYP3A4 [12], 0%; at CYP3A4 [13] it was -0.93%. Besides, the values for the half-maximal inhibitory concentration (IC50) (in series [14]; in the series with THP-1) were greater than 10 µM and 1.99 nM, respectively.

For `Cc1ccc(O)cc1Nc1ncnc2cc3c(cc12)S(=O)(=O)C=C3C1CC1`, the dissociation constant Kd in [1] amounted to 70 nM.
